# Like-named read-outs stand apart in the source and are kept apart here.
# Key:
# [1] = tested on: virus-induced cell fusion (gp120-CD4 dependent); test: Anti-syncytial cocultivation assay: H9 cells chronically infected with HIV-1 RF mixed with uninfected C8166 cells; assay type: cell-based, HIV-1 RF; human H9 and C8166 cells
# Text: Syncytial cell formation depends on the interaction of gp120, expressed in the membranes of infected cells, with the CD4 antigen on neighboring cells (Camerini and Seed, 1990). We utilized a cell cocultivation model to examine the effect of the stilbene disulfonic acids on the gp120-CD4 dependent fusion process. This system consists of mixing H9 cells chronically infected with HIV-1 RF (gp120^+ cells) with uninfected C8166 cells (CD4^+ cells) as the fusion indicator. In this assay, cell fusion occurred within 2 to 3 hours of mixing at 37° C. and substantial syncytia were observed after a further 3 to 4 hours (FIG. 1, Panel A). […] These findings with the sulfated polysaccharides were consistent with a previous report (Montefiori et al., 1990).
# The effect of the stilbene disulfonic acids and various sulfated polysaccharides on virus-induced cell fusion. In this assay, 10^5 H9 cells, chronically infected with the HIV-1 strain RF, were cocultured with 10^5 uninfected C8166 cells in the absence and presence of the test compounds. FIG. 1A: Positive control, no compound addition; FIG. 1B: 100 μg/ml DIDS; FIG. 1C: 100 μg/ml SITS; FIG. 1D: positive control; FIG. 1E: 10 μg/ml 500,000 MW dextran sulfate; FIG. 1F: 250 μg/ml heparin.
# CD4^+ uninfected C8166 cells were seeded into 24-well trays ([…]) that contained growth medium and various concentrations of test compounds. H9 cells, chronically infected with the RF strain of HIV-1, were washed and then added as a source of gp120^+ cells at 10^5 cells/well except for the noncytopathic control: those wells received uninfected H9 cells. The trays were then incubated at 37° C. and the cocultures were observed between 1 and 6 hours p.i. Syncytia were recorded on photographic film.
# Protocol: H9 cells chronically infected with RF strain of HIV-1 and uninfected C8166 cells were mixed in the presence of either DIDS, SITS, H2 DIDS, dextran sulfate, or heparin (100 μg/ml). The cells were observed after 2, 31/2 and 51/2 hours and the amount of cell fusion quantified.
# Protocol: H9 cells chronically inected with HIV-1 and uninfected C8166 cells were mixed in the presence of either DIDS, SITS, H2 DIDS, dextran sulfate, heparin (at 100 μg/ml), OKT4 or OKT4A (at a 1/50 dilution). The cells were observed after 4 hours and the amount of cell fusion quantitied. OKT4 and OKT4A are monoclonal antibodies that bined the CD4 cell surface antigen.
# MT-4 cells = test: Cytotoxicity in MT-4 cells, tetrazolium reduction assay; assay type: cell-based, human
# [2] = tested on: HIV-1 strain RF in MT-4 cells; test: Growth of HIV-1 RF in MT-4 cells; assay type: cell-based, HIV-1 (human MT-4 cells)
# Text: (§1) When evaluated in the human T cell line JM acutely infected with the GB8 virus, DIDS, H2 DIDS and SITS (Table I) suppressed virus-induced multinucleated giant cell formation (syncytia). […] We also examined the antiviral properties of these compounds in a second host-cell/virus system, i.e., the highly CD4+ C8166 cells infected with the Haitian strain of HIV-1, RF.
# (§2) The cell lines used were the semi-mature human lymphoblastoid leukemia T cell line JM, the human T-lymphoblastoid C8166 cell line, the human cutaneous T cell lymphoma line H9 and, the human T cell transformed line MT-4. Stocks of HIV-1 strains RF and GB8 (kindly provided by Dr. Graham Farrar, Center for Applied Microbiological Research, Porton Dawn, England) were prepared from chronically infected H9 cells and acutely infected JM cells, respectively. Virus stocks consisted of cell-free growth medium (RPMI 1640 plus 10% fetal calf serum) containing freshly shed virus. Virus titres were determined by a standard plaque reduction assay.
# [3] = tested on: HIV-1 strain GB8 in JM cells; test: Acute HIV-1 (GB8) infection of JM cells: syncytial counts and p24 antigen; assay type: cell-based, HIV-1 (human T cell line JM); settings: for Mean Syncytial Counts: at day 4 p.i.
# Text: as §1, §2
# Virus stocks (strains RF or GB8) were diluted into growth medium containing various concentrations of DIDS, H2 DIDS or SITS. The required number of cells were then immediately added and the virus allowed to absorb for 2 hours at 37° C. to give a multiplicity of infection (MOI) of 0.001 infectious units/cell. The virus-infected cells were pelleted, washed three times in phosphate buffered saline (PBS), and resuspended in fresh growth medium containing the appropriate concentrations of stilbene disulfonic acids. Cells were then distributed into 24-well culture plates (Falcon) and assayed as described below for virus infection. Alternatively, cells were first infected with HIV-1 (strains RF or GB8) for 2 hours at 37° C. at the above MOI. After extensive washing, cells were replated into fresh growth medium containing various concentrations of stilbene disulfonic acids. In the above experiments, syncytia were scored between 2 and 4 days postinfection (p.i.) in triplicate using an Olympus CK2 inverted microscope. The culture fluids were recovered between 3 and 5 days p.i., clarified by low speed centrifugation (2,000 rpm) for 5 minutes and the level of HIV-1 p24 core antigen in the supernatants was determined by p24 antigen ELISA (Coulter). The concentrations of stilbene disulfonic acids giving 50% inhibition of HIV-1 growth (IC50) were determined from the dose-response curves by linear regression analysis.
# Protocol: JM cells were infected with HIV-1 to give a multiplicity of infection of 0.001. Virus adsorption was for 2 hours at room temperature. The cells were washed and distributed into wells containing different concentrations of test compounds and incubated. After 2 days the cells were observed and syncytia were counted. The cell-free supernatant fluids were harvested at 4 and 6 days post infection and assayed for levels of p24 viral core antigen and after 6 days the supernatants were also titrated to determine levels of infectivity.
# [4] = JM cells acutely infected with GB8
smiles,measurement,setting,value
"O=S(=O)(O)c1cc(N=C=S)ccc1C=Cc1ccc(N=C=S)cc1S(=O)(=O)O [DIDS, 4,4'-diisothiocyanatostilbene-2,2'-disulfonic acid]",cell fusion / syncytia,"[1]; 100 μg/ml, at the time of cell mixing",completely prevented cell fusion
same,Syncytia after 2 hrs,"[1]; 100 μg/ml, virus control ++",0
same,Syncytia after 3 1/2 hrs,"[1]; 100 μg/ml, virus control +++",0
same,Syncytia after 5 1/2 hrs,"[1]; 100 μg/ml, virus control +++",0
same,protection of C8166 cells,"[1]; 200 μg/ml, 5 days post-mixing, not shown",totally protected the C8166 cells
same,blocking virus-induced cell fusion and death,[1]; summary statement,siginificant antiviral activity
same,cytotoxicity at antiviral concentrations,MT-4 cells,noncytotoxic
same,growth of RF in MT-4 cells / antiviral activity,[2],blocked the growth of RF
same,Mean Syncytial Counts 2 Days p.i.,[3]; 3 μg/ml,114
same,Mean Syncytial Counts,[3]; 6 μM,114
same,Mean Syncytial Counts 2 Days p.i.,[3]; 6 μg/ml,101
same,Mean Syncytial Counts,[3]; 12 μM,101
same,Mean Syncytial Counts 2 Days p.i.,[3]; 12.5 μg/ml,31
same,p24 4 days p.i.,[3]; 12.5 μg/ml,110000 pg/mL
same,p24 6 days p.i.,[3]; 12.5 μg/ml,2.44 × 10^6 pg/m.
same,Mean Syncytial Counts,[3]; 25 μM,31
same,Mean Syncytial Counts 2 Days p.i.,[3]; 25 μg/ml,0
same,p24 4 days p.i.,[3]; 25 μg/ml,4700 pg/mL
same,p24 6 days p.i.,[3]; 25 μg/ml,1.21 × 10^6 pg/m.
same,Mean Syncytial Counts,[3]; 50 μM,0
same,Mean Syncytial Counts 2 Days p.i.,[3]; 50 μg/ml,0
same,p24 4 days p.i.,[3]; 50 μg/ml,130 pg/mL
same,p24 6 days p.i.,[3]; 50 μg/ml,1.23 × 10^4 pg/m.
same,Mean Syncytial Counts,[3]; 100 μM,0
same,Mean Syncytial Counts 2 Days p.i.,[3]; 100 μg/ml,0
same,p24 4 days p.i.,[3]; 100 μg/ml,None detected
same,p24 6 days p.i.,[3]; 100 μg/ml,4.87 × 10^2 pg/m.
same,Mean Syncytial Counts,[3]; 200 μM,0
same,activity at 12.5 µg/mL,"[3]; Human immunodeficiency virus 1, 96 h, 12.5 μg/ml, read-out: p24 4 days p.i., % Control",> 100%
same,activity at 25 µg/mL,"[3]; Human immunodeficiency virus 1, 96 h, 25 μg/ml, read-out: p24 4 days p.i., % Control",6.4%
same,activity at 50 µg/mL,"[3]; Human immunodeficiency virus 1, 96 h, 50 μg/ml, read-out: p24 4 days p.i., % Control",0.18%
same,activity at 100 µg/mL,"[3]; Human immunodeficiency virus 1, 96 h, 100 μg/ml, read-out: p24 4 days p.i., % Control",0%
same,activity at 200 µM,"[3]; Human immunodeficiency virus 1, 144 h, read-out: P24 Antigen % Virus Control",0.02%
same,activity at 12.5 µg/mL,"[3]; Human immunodeficiency virus 1, 144 h, 12.5 μg/ml, read-out: p24 6 days p.i., % Control",> 100%
same,activity at 25 µg/mL,"[3]; Human immunodeficiency virus 1, 144 h, 25 µg/mL, GB8 in JM cells, day 6 p.i., read-out: P24 Antigen % Virus Control",100%
same,activity at 25 µg/mL,"[3]; Human immunodeficiency virus 1, 144 h, 25 μg/ml, read-out: p24 6 days p.i., % Control",56%
same,activity at 50 µg/mL,"[3]; Human immunodeficiency virus 1, 144 h, 50 µg/mL, GB8 in JM cells, day 6 p.i., read-out: P24 Antigen % Virus Control",6.4%
same,activity at 50 µg/mL,"[3]; Human immunodeficiency virus 1, 144 h, 50 μg/ml, read-out: p24 6 days p.i., % Control",0.56%
same,activity at 100 µg/mL,"[3]; Human immunodeficiency virus 1, 144 h, 100 µg/mL, GB8 in JM cells, day 6 p.i., read-out: P24 Antigen % Virus Control",0.56%
same,activity at 100 µg/mL,"[3]; Human immunodeficiency virus 1, 144 h, 100 μg/ml, read-out: p24 6 days p.i., % Control",0.02%
same,inhibition of p24 viral core antigen,[3]; [4],dose-dependent inhibition
same,virus-induced multinucleated giant cell formation (syncytia),[3]; [4],suppressed
same,order of antiviral potency,"[3]; in all three host cell/virus systems (JM/GB8, C8166/RF, MT-4/RF)",DIDS>H2 DIDS>>SITS

# From patent US5494932A, “Sulfonic stilbene derivatives in the treatment of viral disease” (Merrell Dow Pharmaceuticals Inc., priority 1991, dated 1996)
